Experiments:
[1] = system: hiPSC that do not express the respective suicide gene; assay: Cytotoxic effect of the suicide gene substrate on hPSCs that do not express the suicide gene (alkaline phosphatase staining); type: cell-based, human; settings: 48 hours
Source text: Cell were fixed and stained for alkaline phosphatase activity after 48 hr. […] Additional experiments will determine the required levels of ganciclovir and 5-FC in hiPSCs that express the suicide gene, to determine the minimum concentration required.

[2] = system: BALB/c murine K3T3 sarcoma cell lines with herpes simplex virus thymidine kinase gene; settings: K3T3 sarcoma cell lines carrying HSV thymidine kinase gene; cited from earlier work
K3T3 sarcoma tumors = settings: BALB/c mice bearing K3T3 sarcoma tumors produced by the cell lines; cited from earlier work

Row | SMILES | cytotoxic effect on hiPSCs ([1]; 5-FC 1, 10 and 100 μM) | cytotoxic effect on hiPSCs ([1]; ganciclovir 0.2, 2 or 20 μM) | effect on tumor cells in vitro [2] | effect on tumors in vivo (K3T3 sarcoma tumors)
1 | Nc1nc(=O)[nH]cc1F [Vector 5-FC, 5-Flurocytosine] | no cytotoxic effect |  |  | 
2 | Nc1nc(O)c2ncn(COC(CO)CO)c2n1 [ganciclovir, Ganciclovir] |  | no cytotoxic effect | destruction of the tumor cells | destruction of the tumors

Source: patent US20170226483A1, “Methods and Vectors to Produce Vector Free Induced Pluripotent Stem Cells” (Lonza Walkersville, Inc., priority 2016, published 2017)
